Data on one compound can be found in patent US20240366602A1, “COMBINATION THERAPY OF APELIN RECEPTOR AGONIST AND GLP-1 RECEPTOR AGONIST FOR TREATING A DISEASE OR CONDITION ASSOCIATED WITH WEIGHT GAIN” (BioAge Labs, Inc., priority 2023, published 2024).

Holding throughout (type): in vivo, human
Data set [1] concerns healthy adult subjects. The data set is described as follows: Phase 1 Part A (SAD) safety and tolerability. How it is done: (§1) After a baseline period of 24 hours in the clinic, all subjects receive a LD, 1-hour infusion on Day 1. After a 48-hour wash-out period, in which PK and PK/PD data iscollected, subjects receive a 23-hour infusion (1-hour LD followed by a 22-hour maintenance dose). See FIG. 45 for the different dose levels in each SAD cohort. See e.g., Table 33 below. Part A is double-blinded. The cohorts of Part A is conducted sequentially starting with SAD cohort 1.
On Day 1 for Part A, subjects receive LD, 1-hour infusion. On Day 3, after a 48-hour washout period, subjects then receive a 23-hour infusion (1-hour LD followed by a 22-hour MD). No earlier than 24 hours after the end of infusion, subjects is discharged from the clinic on Day 5 (End of Treatment Period [EOTP]). A treatment protocol for the SAD cohorts of Part A is described below: • a. Predose assessments (vital signs and PK assessments) should be done within 30 min of the start of infusion. • b. Vital signs include diastolic and systolic blood pressure and pulse. In addition, temperature and respiratory rate should be collected on predose Day 1 and EOT Day 5. • c. […] AEs was recorded from the start time of the first BGE-105 or placebo study drug infusion until the end of the subject's participation in the study. […]
(§2) The Safety Analysis Set is used for safety analysis. Subjects is analyzed based on the actual treatment received.

Data set [2] has as its system healthy adult subjects. The data set is described as follows: Phase 1 Part A (SAD) insulin resistance (HOMA-IR). To be noted: SAD cohorts 1, 2, 3; Day 3 Predose and Day 4 visits; largest decrease in cohort 3. How it is done: (§3) In Part A, of 24 subjects enrolled (3 SAD cohorts, 8 subjects each), a total of at least 12 subjects are ≥65 years of age (≥4 subjects in each cohort). The remaining subjects are ≥18 years old.
Biomarkers including, but not limited to changes in: • Plasma glucose • Plasma insulin • Insulin resistance (HOMA-IR)
as §1
Blood samples (4 mL) for plasma insulin and glucose monitoring are collected in the morning, before breakfast and after fasting overnight at timepoints described previously.
Data is analyzed as change from baseline within each dose cohort and treatment group. Treatment comparisons are made as a linear contrast of all treated compared to all placebo and for each individual dose cohort versus all placebo based on time-matched samples acquired during the 24-hour period on Day −1. P-values are reported uncorrected for multiplicity.

In data set [3] the test system is healthy volunteers aged≥65 years. The data set is described as follows: Phase 1b Part B (MD) safety. The method, then: as §2
The double-blind, placebo-controlled clinical trial evaluated the safety and pharmacodynamics of BGE-105.

Data set [4] is described as follows: Phase 1 study BGE-105-101 Part A (SAD) pharmacokinetics after IV infusion. The conditions noted are these: for Dose-normalized AUCinf / Dose-normalized Cmax: Mean, unit assumed. The method, then:
as §3, §1
On Day 1 for Part A, subjects receive LD, 1-hour infusion. On Day 3, after a 48-hour washout period, subjects then receive a 23-hour infusion (1-hour LD followed by a 22-hour MD). No earlier than 24 hours after the end of infusion, subjects is discharged from the clinic on Day 5 (End of Treatment Period [EOTP]). A treatment protocol for the SAD cohorts of Part A is described below: • a. Predose assessments (vital signs and PK assessments) should be done within 30 min of the start of infusion. • b. Vital signs include diastolic and systolic blood pressure and pulse. In addition, temperature and respiratory rate should be collected on predose Day 1 and EOT Day 5. • c. Safety laboratory tests include complete blood count, clinical chemistries, and urinalysis. • d. Assessments should be done within 1 hour after the end of the LD infusions on Day 1 and Day 3. • e. AEs was recorded from the start time of the first BGE-105 or placebo study drug infusion until the end of the subject's participation in the study. At discharge from the unit, any ongoing AEs was documented in source and in EDC be followed until the event is resolved or stabilized. Any new AEs occurring after discharge will clearly note the start date and end date. • f. Study drug was administered via IV infusion as a LD, 1-hour infusion on Day 1. After a 48-hour wash-out, study drug will then be administered as a 23-hour infusion (1-hour LD followed by a 22-hour MD). • g. Continuous cardiac ECG telemetry monitoring was used, continuing through the end of dosing on Day 4. • h. Blood samples for plasma insulin and glucose monitoring should be collected in the morning, before breakfast and after fasting overnight. • i. Assessments can be done any time after 24 hours after the end of infusion and before discharge.
Relevant plasma PK parameters are derived for BGE-105 by standard noncompartmental methods and tabulated along with descriptive statistics and graphs.

“Also recorded” adds a separate entry of the source.

Turning to `COc1cccc(OC)c1-n1c(NS(=O)(=O)[C@@H](C)[C@H](C)c2ncc(C)cn2)nnc1-c1cncc(C)c1` [BGE-105, (2S,3R)—N-(4-(2,6-dimethoxyphenyl)-5-(5-methyl-3-pyridinyl)-4H-1,2,4-triazol-3-yl)-3-(5-methyl-2-pyrimidinyl)-2-butanesulfonamide], the Serious adverse events entry with healthy adult subjects [1] (SAD cohorts Part A) is on record as “no serious adverse events”. The Tolerability result in the data set with healthy adult subjects [1] (SAD cohorts, all doses including 240 mg/1440 mg) was “well tolerated”; in data set [3] (Part B study) it was “well tolerated”. The “Percent change from baseline in HOMA-IR” value in the data set with healthy adult subjects [2] is given as “decrease in the percent change from baseline in HOMA-IR”. In data set [3] (volunteers≥65 years old, 10 days of bed rest), the Serious adverse effects entry is reported as “no serious adverse effects”. In data set [4] (3 SAD cohorts, 95% confidence interval for slope includes 1), the “Dose proportionality of Cmax and AUC” value is recorded as “demonstrated dose proportionality; also recorded: linear across the dose range”. Also, the Dose-normalized AUCinf came out at 0.66 µg·h/mL/mg in data set [4] (SAD1 (60 mg/360 mg) Day 1), 0.49 µg·h/mL/mg in data set [4] (SAD2 (120 mg/720 mg) Day 1) and 0.5 µg·h/mL/mg in data set [4] (SAD3 (240 mg/1440 mg) Day 1). Also, the Dose-normalized Cmax in data set [4] (SAD1 (60 mg/360 mg) Day 1) worked out at 0.12 µg/mL/mg; in data set [4] (SAD2 (120 mg/720 mg) Day 1), 0.11 µg/mL/mg; in data set [4] (SAD3 (240 mg/1440 mg) Day 1), 0.11 µg/mL/mg.
